Measurements taken from ChEMBL document CHEMBL3886760, “Cyclic amine substituted heterocyclic CETP inhibitors” (2016).

Biological target: T1, Cholesteryl ester transfer protein (Homo sapiens, UniProt P11597)
T1 sequence (P11597 whole entry): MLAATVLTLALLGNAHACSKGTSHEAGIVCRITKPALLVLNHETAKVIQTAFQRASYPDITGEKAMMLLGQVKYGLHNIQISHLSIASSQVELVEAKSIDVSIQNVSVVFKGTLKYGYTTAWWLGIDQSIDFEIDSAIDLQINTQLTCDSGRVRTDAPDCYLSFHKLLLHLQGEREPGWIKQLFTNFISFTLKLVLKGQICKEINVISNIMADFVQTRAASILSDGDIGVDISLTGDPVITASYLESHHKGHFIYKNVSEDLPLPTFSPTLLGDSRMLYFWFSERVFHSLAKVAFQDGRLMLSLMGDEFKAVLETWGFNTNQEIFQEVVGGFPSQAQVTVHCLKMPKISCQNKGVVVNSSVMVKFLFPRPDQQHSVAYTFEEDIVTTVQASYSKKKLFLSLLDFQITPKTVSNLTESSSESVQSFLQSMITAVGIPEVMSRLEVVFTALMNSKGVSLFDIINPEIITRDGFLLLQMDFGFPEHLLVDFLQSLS
Test: Scintillation Proximity Assay (SPA): First, low density lipoprotein (LDL) (Meridian) was biotinylated by incubating LDL with biotin for 1 hour on ice, after which it was dialyzed to remove free biotin. Then compounds at varying concentrations were incubated with 15 nM CETP (reagent production group, In Vitro Pharmacology, MRL Rahway) and 50 ug/ml of the biotinylated LDL in 50 mM HEPES, 150 mM NaCl, pH 7.4, for 1 hour at 37° C. The reaction was started by adding 3H-cholesterol ester high density lipoprotein (HDL) (American Radiochemicals Corp) at a concentration of 0.6 nM. The reaction proceeded for 2 hours at 37° C., after which time it was quenched by the addition of 12% acetic acid. PVT streptavadin-coated scintillation proximity beads, which had been brought to room temperature, were then added at a concentration of 4 mg/ml. The assay was then mixed and counted after one half hour in a Microbeta plate reader.

IC50: 0.038 µM
SMILES: COc1ncc(Cl)cc1-c1cnc(N2CC(F)C2)nc1CN1C(=O)O[C@H](c2cc(C(F)(F)F)cc(C(F)(F)F)c2)[C@@H]1C
